Test results reported in ChEMBL document CHEMBL6083265, “Design, synthesis and biological evaluation of 4,6-diarylquinoxaline-based KDM4D inhibitors” (Bioorg Med Chem, 2024).
Calls of active or inactive are those of the source. The rule behind the calls is not given here.

How the values were obtained:
[1] = target: T1, Lysine-specific demethylase 4D (Homo sapiens, UniProt Q6B0I6); assay: Inhibition of KDM4D (unknown origin) incubated for 60 mins by microplate reader analysis
T1 sequence (Q6B0I6 whole entry): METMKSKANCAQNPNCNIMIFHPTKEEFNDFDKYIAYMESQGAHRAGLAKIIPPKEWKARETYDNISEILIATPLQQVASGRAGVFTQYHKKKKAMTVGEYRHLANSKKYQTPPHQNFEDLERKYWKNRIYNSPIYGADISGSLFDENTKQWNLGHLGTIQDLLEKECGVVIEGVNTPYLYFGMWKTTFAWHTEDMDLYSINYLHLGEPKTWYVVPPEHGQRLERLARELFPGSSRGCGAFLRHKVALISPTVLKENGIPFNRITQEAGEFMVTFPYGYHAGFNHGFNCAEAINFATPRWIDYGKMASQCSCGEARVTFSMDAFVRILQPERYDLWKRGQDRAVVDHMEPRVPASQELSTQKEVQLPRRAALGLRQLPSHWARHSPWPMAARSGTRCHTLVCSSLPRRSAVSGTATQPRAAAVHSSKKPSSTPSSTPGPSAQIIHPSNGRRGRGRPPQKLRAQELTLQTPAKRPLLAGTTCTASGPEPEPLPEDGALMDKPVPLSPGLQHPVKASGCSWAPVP

Huh-7 [2] = assay: cells; settings: Homo sapiens, Huh-7, 48 h, read-out: INH
Description: Anticancer activity against human Huh-7 cells assessed as inhibition of cell viability at 8 uM incubated for 48 hrs by CCK-8 assay (Rvb = 0 +/- 0.88 %)

Huh-7 [3] = settings: Homo sapiens, Huh-7, 48 h
Huh-7 [4] = assay: Downregulation of c-Myc expression in human Huh-7 cells by Western blot analysis; format: functional, cell-based
Huh-7 [5] = assay: Induction of cell cycle arrest in human Huh-7 cells assessed as decrease in accumulation of cells at S phase at 2 uM by flow cytometry analysis; format: functional, cell-based
Huh-7 [6] = assay: Inhibition of cell migration in human Huh-7 cells at 2 uM measured for 24 hrs by wound healing assay; format: functional, cell-based
Huh-7 [7] = assay: Induction of cell cycle arrest in human Huh-7 cells assessed as increase in accumulation of cells at G1 phase at 2 uM by flow cytometry analysis; format: functional, cell-based
Huh-7 [8] = assay: Inhibition of colony formation in human Huh-7 cells at 2 uM incubated for 72 hrs followed by compound washout and measured after 10 days by crystal violet staining based assay; format: functional, cell-based
Huh-7 [9] = assay: Downregulation of CyclinD1 expression in human Huh-7 cells by Western blot analysis; format: functional, cell-based
Huh-7 [10] = assay: Induction of cell cycle arrest in human Huh-7 cells assessed as decrease in accumulation of cells at G2/M phase at 2 uM by flow cytometry analysis; format: functional, cell-based

Compound | IC50 [1] | inhibition at 8 µM (Huh-7 [2]) | also measured
Fc1ccc(CNC(=S)Nc2ccc3nc(-c4ccccn4)c(-c4ccccn4)nc3c2)cc1 | > 50 µM | 37.8% | –
COc1ccc(CNC(=S)Nc2ccc3nc(-c4ccco4)c(-c4ccco4)nc3c2)cc1 | 3.12 µM | 32.9% | –
O=C1CCCN(C(=S)Nc2ccc3nc(-c4ccco4)c(-c4ccco4)nc3c2)CC1 | 3.97 µM | 29.5% | –
S=C(Nc1ccc2nc(-c3ccco3)c(-c3ccco3)nc2c1)N1CCCCCC1 | 2.31 µM | 33.3% | –
Fc1ccc(CNC(=S)Nc2ccc3nc(-c4ccc(Br)s4)c(-c4ccc(Br)s4)nc3c2)cc1 | > 50 µM | 28.5% | –
S=C(Nc1ccc2nc(-c3ccccn3)c(-c3ccccn3)nc2c1)N1CCCCCC1 | > 50 µM | 39.1% | –
S=C(Nc1ccc2nc(-c3ccco3)c(-c3ccco3)nc2c1)Nc1ccccn1 | 2.46 µM | 16% | –
S=C(Nc1ccc2nc(-c3ccc(Br)o3)c(-c3ccc(Br)o3)nc2c1)N1CCCCCC1 | 5.98 µM | 25.8% | –
COC(=O)CCCNC(=S)Nc1ccc2nc(-c3ccco3)c(-c3ccco3)nc2c1 | 2.41 µM | 20.2% | –
O=C(Nc1ccccc1)Nc1ccc2nc(-c3ccco3)c(-c3ccco3)nc2c1 | 3.7 µM | 24.2% | –
Cc1ccc(-c2nc3ccc(NC(=S)N4CCCCCC4)cc3nc2-c2ccc(C)o2)o1 | 0.62 µM | 55.5% | IC50 (Huh-7 [3]): 5.23 µM; Activity (Huh-7 [4]): Active; Activity (Huh-7 [5]): Active; inhibition (Huh-7 [6]): Active; Activity (Huh-7 [7]): Active; inhibition (Huh-7 [8]): Active; Activity (Huh-7 [9]): Active; Activity (Huh-7 [10]): Active
O=C(Nc1ccc2nc(-c3ccco3)c(-c3ccco3)nc2c1)N1CCCCCC1 | 2.95 µM | 32.8% | –
O=[N+]([O-])c1ccc(CNC(=S)Nc2ccc3nc(-c4ccco4)c(-c4ccco4)nc3c2)cc1 | 3.66 µM | 19.4% | –
S=C(Nc1ccccc1)Nc1ccc2nc(-c3ccco3)c(-c3ccco3)nc2c1 | 4.81 µM | 25.6% | –
S=C(NCc1ccncc1)Nc1ccc2nc(-c3ccccn3)c(-c3ccccn3)nc2c1 | > 50 µM | 39.8% | –
S=C(Nc1ccc2nc(-c3ccco3)c(-c3ccco3)nc2c1)N1CCOCC1 | 3.8 µM | 30% | –
S=C(Nc1ccc2nc(-c3ccco3)c(-c3ccco3)nc2c1)c1ccccc1 | 25.6 µM | 33.8% | –
O=C(Nc1ccccc1)C(=S)Nc1ccc2nc(-c3ccco3)c(-c3ccco3)nc2c1 | 7.16 µM | 19.7% | –
S=C(Nc1ccc2nc(-c3ccc(Br)s3)c(-c3ccc(Br)s3)nc2c1)N1CCCCCC1 | > 50 µM | 41.5% | –
Fc1ccc(CNC(=S)Nc2ccc3nc(-c4ccco4)c(-c4ccco4)nc3c2)cc1 | 3.23 µM | 33% | –
Fc1ccc(CNC(=S)Nc2ccc3nc(-c4cccs4)c(-c4cccs4)nc3c2)cc1 | > 50 µM | 41.8% | –
CCCCNC(=S)Nc1ccc2nc(-c3ccco3)c(-c3ccco3)nc2c1 | 2.63 µM | 30.7% | –
S=C(NCc1ccccn1)Nc1ccc2nc(-c3ccccn3)c(-c3ccccn3)nc2c1 | > 50 µM | 30.3% | –
S=C(NCc1ccccn1)Nc1ccc2nc(-c3ccc(Br)o3)c(-c3ccc(Br)o3)nc2c1 | 13 µM | 38.1% | –
